ChEMBL document CHEMBL5500324, “The potential of marine-derived piperazine alkaloids: Sources, structures and bioactivities” (Eur J Med Chem, 2024)
Converted amounts (≈) assume the structure as drawn.

What was measured:
HT-29 [1] = assay: Cytotoxicity against human HT-29 cells assessed as inhibition of cell growth; format: functional, cell-based
SK-MEL-28 = assay: Cytotoxicity against human SK-MEL-28 cells assessed as inhibition of cell growth; format: functional, cell-based
P388 [2] = assay: Cytotoxicity against mouse P388 cells assessed as inhibition of cell growth; format: functional, cell-based
A549 [3] = assay: Cytotoxicity against human A549 cells assessed as inhibition of cell growth; format: functional, cell-based
P388 [4] = assay: Cytotoxicity against mouse P388 cells; format: functional; settings: read-out: ED50 (the source's name)
P388 [5] = assay: Cytotoxicity against mouse P388 cells assessed as reduction in cell viability; format: functional; settings: read-out: ED50 (the source's name)
HL-60 = assay: Cytotoxicity against human HL-60 cells assessed as reduction in cell viability by MTT assay; format: functional, cell-based
A549 [6] = assay: Cytotoxicity against human A549 cells assessed as reduction in cell viability measured for 48 hrs by MTT assay; format: functional, cell-based; settings: A549, 48 h
Bel-7402 = assay: Cytotoxicity against human Bel-7402 cells assessed as reduction in cell viability measured for 48 hrs by MTT assay; format: functional, cell-based; settings: Bel-7402, 48 h
MOLT-4 = assay: Cytotoxicity against human MOLT-4 cells assessed as reduction in cell viability by MTT assay; format: functional, cell-based
DU-145 = assay: Cytotoxicity against human DU-145 cells assessed as cell growth inhibition measured after 48 hrs by MTT assay; format: functional, cell-based; settings: DU-145, 48 h
QG-56 = assay: Cytotoxicity against human QG-56 cells assessed as reduction in cell growth incubated for 24 hrs by MTT assay; format: functional, cell-based; settings: QG-56, 24 h
HepG2 = assay: Cytotoxicity against human HepG2 cells assessed as reduction in cell growth incubated for 48 hrs by SRB assay; format: functional, cell-based; settings: HepG2, 48 h
SF-268 = assay: Cytotoxicity against human SF-268 cells assessed as reduction in cell growth incubated for 48 hrs by SRB assay; format: functional, cell-based; settings: SF-268, 48 h
NCI-H460 = assay: Cytotoxicity against human NCI-H460 cells assessed as reduction in cell growth incubated for 48 hrs by SRB assay; format: functional, cell-based; settings: NCI-H460, 48 h
MCF7 = assay: Cytotoxicity against human MCF7 cells assessed as reduction in cell growth incubated for 48 hrs by SRB assay; format: functional, cell-based; settings: MCF7, 48 h
MDA-MB-231 = assay: Antiproliferative activity against human MDA-MB-231 cells assessed as reduction in cell viability incubated for 72 hrs by SRB assay; format: functional, cell-based; settings: MDA-MB-231, 72 h
HT-29 [7] = assay: Antiproliferative activity against human HT-29 cells assessed as reduction in cell viability incubated for 72 hrs by SRB assay; format: functional, cell-based; settings: HT-29, 72 h
A549 [8] = assay: Antiproliferative activity against human A549 cells assessed as reduction in cell viability incubated for 72 hrs by SRB assay; format: functional, cell-based; settings: A549, 72 h

`COc1c(C)cc2c(c1O)[C@@H]1N[C@H](C2)[C@H](O)N2[C@H]1[C@@H]1SC[C@H](N)C(=O)OC[C@H]2c2c(O)c(OC)c(C)c(OC(C)=O)c21` was tested, and the IC50 (HT-29 [1]) was 10 ng/mL (≈ 16.6 nM), the IC50 (SK-MEL-28) was 5 ng/mL (≈ 8.31 nM) and the IC50 (P388 [2]) was 10 µM. For the same compound, the IC50 (A549 [3]) was 10 ng/mL (≈ 16.6 nM).
`CC(C)[C@]12SS[C@]3(C(=O)N1C)[C@@H](O)C1(C45c6ccccc6N[C@H]4N4C(=O)[C@@]6(C(C)C)SS[C@]4(C(=O)N6C)[C@H]5O)c4ccccc4N[C@@H]1N3C2=O` (stereo partly drawn) gave an EC50 (P388 [4]) of 3.8 ng/mL (≈ 5.05 nM).
`CC(C)[C@]12SSS[C@]3(C(=O)N1C)[C@@H](O)C1(C45c6ccccc6N[C@H]4N4C(=O)[C@@]6(CO)SSS[C@]4(C(=O)N6C)[C@H]5O)c4ccccc4N[C@@H]1N3C2=O` (stereo partly drawn) was tested, and the EC50 (P388 [4]) was 4.3 ng/mL (≈ 5.34 nM).
Compound `COc1cc2c(cc1O)CCN[C@@]21CS[C@@H]2c3c(OC(C)=O)c(C)c4c(c3[C@H](COC1=O)N1[C@@H]2[C@@H]2N[C@@H](Cc3cc(C)c(OC)c(O)c32)[C@@H]1O)OCO4` has an IC50 (HT-29 [1]) of 0.5 ng/mL (≈ 0.669 nM), an IC50 (SK-MEL-28) of 5 ng/mL (≈ 6.69 nM) and an IC50 (P388 [2]) of 0.2 µM. It also gave an IC50 (A549 [3]) of 0.2 ng/mL (≈ 0.267 nM).
With `CC(C)[C@]12SSS[C@]3(C(=O)N1C)[C@@H](O)C1(C45c6ccccc6N[C@H]4N4C(=O)[C@@]6(CO)SS[C@]4(C(=O)N6C)[C@H]5O)c4ccccc4N[C@@H]1N3C2=O` (stereo partly drawn) the EC50 (P388 [4]) was 4.4 ng/mL (≈ 5.69 nM).
With `CC(C)[C@]12SS[C@]3(C(=O)N1C)[C@@H](O)C1(C45c6ccccc6N[C@H]4N4C(=O)[C@@]6(CO)SS[C@]4(C(=O)N6C)[C@H]5O)c4ccccc4N[C@@H]1N3C2=O` (stereo partly drawn) the EC50 (P388 [5]) was 1.75 ng/mL (≈ 2.36 nM).
For `CO[C@@]12C(=O)N(C)[C@@H](C(C)C)C(=O)N1[C@@H]1Nc3ccccc3C1(C13c4ccccc4N[C@@H]1N1C(=O)[C@@]4(C(C)C)SSS[C@]1(C(=O)N4C)[C@@H]3O)[C@H]2O` (stereo partly drawn), the EC50 (P388 [4]) was 190 ng/mL (≈ 252 nM).
In the case of `COc1ccc2c(c1)N(CC=C(C)C)C(=O)[C@]21[C@H](C=C(C)C)N2C(=O)[C@]3(O)CCCN3C(=O)[C@]2(O)[C@H]1O`, the IC50 (HL-60) is reported as 45 µM, the IC50 (A549 [6]) is reported as 35.5 µM and the IC50 (Bel-7402) is reported as 17.5 µM. It also gave an IC50 (MOLT-4) of 25.7 µM.
Compound `CSS[C@]1(C(C)C)C(=O)N2C(=CC3(C45c6ccccc6N[C@H]4N4C(=O)[C@H](CO)N(C)C(=O)[C@@]4(O)[C@H]5O)c4ccccc4N[C@H]23)C(=O)N1C` (stereo partly drawn) has an EC50 (P388 [4]) of 100 ng/mL (≈ 144 nM).
In the case of `C=C(C)[C@H](O)Cn1c2c(c3ccc(OC)cc31)[C@H](O)[C@@]1(O)C(=O)N3CCC[C@H]3C(=O)N1[C@H]2C=C(C)C`, the IC50 (HL-60) is reported as 5.4 µM, the IC50 (A549 [6]) is reported as 11.6 µM and the IC50 (Bel-7402) is reported as 10.8 µM. It also gave an IC50 (MOLT-4) of 11 µM.
For `CC(C)[C@]12SSSS[C@]3(C(=O)N1C)[C@@H](O)C1(C45c6ccccc6N[C@H]4N4C(=O)[C@@]6(C(C)C)SS[C@]4(C(=O)N6C)[C@H]5O)c4ccccc4N[C@@H]1N3C2=O` (stereo partly drawn), the EC50 (P388 [4]) was 2.1 ng/mL (≈ 2.57 nM).
`CO[C@@]12C(=O)N(C)[C@@H](CO)C(=O)N1[C@@H]1Nc3ccccc3C1(C13c4ccccc4N[C@@H]1N1C(=O)[C@@]4(C(C)C)SS[C@]1(C(=O)N4C)[C@@H]3O)[C@H]2O` (stereo partly drawn) was tested, and the EC50 (P388 [4]) was 180 ng/mL (≈ 254 nM).
`C=C(C)[C@@H](O)Cn1c2c(c3ccc(OC)cc31)[C@H](O)[C@@]1(O)C(=O)N3CCC[C@H]3C(=O)N1[C@H]2C=C(C)C` showed an IC50 (HL-60) of 3.4 µM, an IC50 (A549 [6]) of 11 µM and an IC50 (Bel-7402) of 7 µM. It also gave an IC50 (MOLT-4) of 11 µM.
`CC(C)[C@]12SSS[C@]3(C(=O)N1C)[C@@H](O)C1(C45c6ccccc6N[C@H]4N4C(=O)[C@@]6(CO)SSSS[C@]4(C(=O)N6C)[C@H]5O)c4ccccc4N[C@@H]1N3C2=O` (stereo partly drawn) was tested, and the EC50 (P388 [4]) was 4.6 ng/mL (≈ 5.5 nM).
With `C/C=C(/C)C(=O)OC[C@H]1C2=C(C[C@H]3[C@H]4C5=C(C[C@@H]([C@H](C#N)N13)N4C)C(=O)C(C)=C(OC)C5=O)C(=O)C(C)=C(OC)C2=O` [RENIERAMYCIN M] the IC50 (DU-145) was 0.019 µM and the IC50 (QG-56) was 0.00076 µM.
Work on `CN1C(=O)[C@]23Cc4ccccc4N2C(=O)[C@@]1(CO)SS3` yielded an IC50 (HepG2) of 1.52 µM, an IC50 (SF-268) of 1.35 µM and an IC50 (NCI-H460) of 1.27 µM. The IC50 (MCF7) was 0.68 µM.
`CC(C)[C@]12SSSS[C@]3(C(=O)N1C)[C@@H](O)C1(C45c6ccccc6N[C@H]4N4C(=O)[C@@]6(CO)SS[C@]4(C(=O)N6C)[C@H]5O)c4ccccc4N[C@@H]1N3C2=O` (stereo partly drawn) was tested, and the EC50 (P388 [4]) was 3 ng/mL (≈ 3.73 nM).
Compound `CN1C[C@@H](c2c[nH]c3cc(Br)ccc23)N(C)C[C@@H]1c1c[nH]c2cc(Br)ccc12` has an IC50 (MDA-MB-231) of 28 µM, an IC50 (HT-29 [7]) of 19.3 µM and an IC50 (A549 [8]) of 20.3 µM.
For `CO[C@@]12C(=O)N(C)[C@@H](CO)C(=O)N1[C@@H]1Nc3ccccc3C1(C13c4ccccc4N[C@@H]1N1C(=O)[C@@]4(C(C)C)SS[C@]1(C(=O)N4C)[C@H]3O)[C@@H]2O` (stereo partly drawn), the EC50 (P388 [4]) was 1400 ng/mL (≈ 1980 nM).
`CN1C[C@@H](c2c[nH]c3cc(Br)ccc23)NC[C@@H]1c1c[nH]c2cc(Br)ccc12` showed an IC50 (MDA-MB-231) of 3.8 µM, an IC50 (HT-29 [7]) of 3.3 µM and an IC50 (A549 [8]) of 3.1 µM.
